pIC50: −log10 of the molar value.

Assay [1] is filed under the species Homo sapiens. Description: Selectivity ratio of IC50 for TGFbetaR1 (unknown origin) to IC50 for MEK5 (unknown origin).
Assay [2] is filed under the species Homo sapiens. The experiment in a line: Selectivity ratio of IC50 for ERK5 (unknown origin) to IC50 for MEK5 (unknown origin).
For assay [3], the target named is T1, Dual specificity mitogen-activated protein kinase kinase 6 (Homo sapiens, UniProt P52564).
T1 sequence (P52564 whole entry): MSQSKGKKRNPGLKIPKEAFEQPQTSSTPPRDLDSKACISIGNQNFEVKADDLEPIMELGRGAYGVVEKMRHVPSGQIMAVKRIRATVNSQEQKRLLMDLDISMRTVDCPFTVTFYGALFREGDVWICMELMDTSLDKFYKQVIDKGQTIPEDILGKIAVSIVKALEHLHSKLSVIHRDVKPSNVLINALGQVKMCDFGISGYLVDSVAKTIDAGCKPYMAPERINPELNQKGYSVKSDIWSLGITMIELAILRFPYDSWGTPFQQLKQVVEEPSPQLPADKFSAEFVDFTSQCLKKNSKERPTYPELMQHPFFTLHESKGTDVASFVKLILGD
The experiment in a line: Inhibition of MEK6 (unknown origin).

For assay [4], the species on record is Homo sapiens. The experiment in a line: Selectivity ratio of IC50 for MEK3 (unknown origin) to IC50 for MEK6 (unknown origin).
The species named for assay [5] is Homo sapiens. Description: Selectivity ratio of IC50 for MEK4 (unknown origin) to IC50 for MEK6 (unknown origin).
The species named for assay [6] is Homo sapiens. The experiment in a line: Selectivity ratio of IC50 for MEK1 (unknown origin) to IC50 for MEK6 (unknown origin).
The species named for assay [7] is Homo sapiens. Description: Selectivity ratio of IC50 for MEK2 (unknown origin) to IC50 for MEK6 (unknown origin).
The target of assay [8] is T2, Dual specificity mitogen-activated protein kinase kinase 4 (Homo sapiens) (UniProt P45985).
T2 sequence (whole entry): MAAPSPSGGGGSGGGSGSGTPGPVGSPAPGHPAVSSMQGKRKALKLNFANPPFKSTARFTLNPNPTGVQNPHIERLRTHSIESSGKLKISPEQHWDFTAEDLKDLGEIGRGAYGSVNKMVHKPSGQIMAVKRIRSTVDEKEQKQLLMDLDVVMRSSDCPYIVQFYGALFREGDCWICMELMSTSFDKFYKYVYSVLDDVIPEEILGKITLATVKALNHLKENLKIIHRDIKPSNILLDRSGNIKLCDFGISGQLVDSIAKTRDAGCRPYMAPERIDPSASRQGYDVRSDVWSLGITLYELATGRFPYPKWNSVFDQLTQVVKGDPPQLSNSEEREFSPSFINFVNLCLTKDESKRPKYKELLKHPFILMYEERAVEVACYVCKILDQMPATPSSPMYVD
Description: Inhibition of wild type recombinant human MEK4 (S84 to D399 residues) at 1 uM relative to control.

Assay [9] concerns the target Leucine-rich repeat serine/threonine-protein kinase 2 (Homo sapiens) (UniProt Q5S007). The experiment in a line: Inhibition of wild type full length recombinant human LRRK2 (H970 to E2527 residues) at 1 uM relative to control.
Assay [10] concerns the target Aurora kinase B (Homo sapiens) (UniProt Q96GD4). Description: Inhibition of N- terminal GST-tagged/His6-tagged human recombinant full length Aurora kinase B ([…]) expressed in baculovirus sf21 cells at 1 uM relative to control.
Assay [11] in a line: Inhibition of HA-tagged MEK7 R283Y/K288V/R292M mutant (unknown origin) expressed in HEK-293T cells after 20 mins in presence of [32P]-ATP. The assay is classed as cell-based, Homo sapiens.
Assay [12] can be described thus: Inhibition of flag-tagged MEK4 Q253Y/I258V/R262M mutant (unknown origin) expressed in HEK-293T cells after 20 mins in presence of [32P]-ATP. The assay is classed as cell-based, Homo sapiens.
The target of assay [13] is T3, Dual specificity mitogen-activated protein kinase kinase 7 (Homo sapiens, UniProt O14733).
T3 sequence (O14733 whole entry): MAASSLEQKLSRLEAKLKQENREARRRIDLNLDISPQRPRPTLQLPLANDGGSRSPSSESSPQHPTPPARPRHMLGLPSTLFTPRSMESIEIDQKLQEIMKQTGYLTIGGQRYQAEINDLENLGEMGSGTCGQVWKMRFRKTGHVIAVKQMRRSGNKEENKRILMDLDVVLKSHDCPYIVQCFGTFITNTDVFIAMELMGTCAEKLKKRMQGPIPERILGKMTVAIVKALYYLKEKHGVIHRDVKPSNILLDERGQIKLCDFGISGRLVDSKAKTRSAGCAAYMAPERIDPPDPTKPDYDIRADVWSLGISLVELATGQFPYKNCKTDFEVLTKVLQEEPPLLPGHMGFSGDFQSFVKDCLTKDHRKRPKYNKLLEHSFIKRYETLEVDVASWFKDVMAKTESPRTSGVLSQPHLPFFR
The experiment in a line: Inhibition of MEK7 (unknown origin).

For assay [14], the species on record is Homo sapiens. Description: Selectivity ratio of IC50 for CDC25A (unknown origin) to IC50 for MEK7 (unknown origin).
Assay [15] is filed under the species Homo sapiens. Description: Selectivity ratio of IC50 for CDC25B (unknown origin) to IC50 for MEK7 (unknown origin).
Assay [16] has as its target T4, Tyrosine-protein kinase JAK3 (Homo sapiens) (UniProt P52333).
T4 sequence (whole entry): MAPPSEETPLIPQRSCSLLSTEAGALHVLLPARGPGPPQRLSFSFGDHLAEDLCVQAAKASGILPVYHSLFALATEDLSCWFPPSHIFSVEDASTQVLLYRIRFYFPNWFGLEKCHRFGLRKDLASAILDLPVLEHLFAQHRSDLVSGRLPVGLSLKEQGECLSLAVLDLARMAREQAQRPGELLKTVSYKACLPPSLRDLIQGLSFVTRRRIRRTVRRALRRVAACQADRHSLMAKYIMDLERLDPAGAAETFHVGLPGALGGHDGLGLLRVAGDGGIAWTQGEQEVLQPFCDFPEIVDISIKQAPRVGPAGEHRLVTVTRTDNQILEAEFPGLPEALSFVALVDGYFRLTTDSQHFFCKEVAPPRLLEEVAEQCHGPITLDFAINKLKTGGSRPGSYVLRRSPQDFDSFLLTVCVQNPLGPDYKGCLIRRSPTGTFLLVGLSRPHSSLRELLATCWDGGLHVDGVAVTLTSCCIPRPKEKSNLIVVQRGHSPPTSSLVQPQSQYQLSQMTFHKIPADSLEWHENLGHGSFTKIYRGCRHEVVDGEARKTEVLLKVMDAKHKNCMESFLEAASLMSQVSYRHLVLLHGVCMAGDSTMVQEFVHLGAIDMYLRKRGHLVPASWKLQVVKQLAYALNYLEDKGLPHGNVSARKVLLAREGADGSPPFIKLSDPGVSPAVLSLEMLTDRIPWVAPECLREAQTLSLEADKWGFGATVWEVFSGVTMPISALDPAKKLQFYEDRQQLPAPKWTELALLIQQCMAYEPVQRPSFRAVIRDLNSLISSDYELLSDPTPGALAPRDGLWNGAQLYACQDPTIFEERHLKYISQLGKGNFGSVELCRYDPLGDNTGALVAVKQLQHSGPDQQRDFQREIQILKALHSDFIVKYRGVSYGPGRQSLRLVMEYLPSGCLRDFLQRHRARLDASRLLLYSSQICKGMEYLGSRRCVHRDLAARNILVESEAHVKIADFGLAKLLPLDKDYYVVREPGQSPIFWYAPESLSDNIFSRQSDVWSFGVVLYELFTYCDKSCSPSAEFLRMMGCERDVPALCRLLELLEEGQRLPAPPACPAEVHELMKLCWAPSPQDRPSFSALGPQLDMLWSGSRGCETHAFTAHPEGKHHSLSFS
Description: Inhibition of recombinant human N-terminal His6-tagged JAK3 (781 to end residues) expressed in baculovirus infected Sf21 cells at 1 uM relative to control.

Sequence of Aurora kinase B (Homo sapiens) (Q96GD4 whole entry): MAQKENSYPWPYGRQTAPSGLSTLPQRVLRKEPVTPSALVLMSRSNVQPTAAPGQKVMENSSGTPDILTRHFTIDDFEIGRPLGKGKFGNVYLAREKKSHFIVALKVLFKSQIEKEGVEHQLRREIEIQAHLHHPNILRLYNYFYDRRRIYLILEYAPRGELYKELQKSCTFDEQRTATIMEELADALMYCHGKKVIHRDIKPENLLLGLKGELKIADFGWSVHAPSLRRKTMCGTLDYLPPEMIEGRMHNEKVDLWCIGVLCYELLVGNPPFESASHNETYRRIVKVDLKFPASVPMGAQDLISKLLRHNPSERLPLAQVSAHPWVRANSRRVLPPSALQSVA
Sequence of Leucine-rich repeat serine/threonine-protein kinase 2 (Homo sapiens) (Q5S007 whole entry, the tested form may be a part): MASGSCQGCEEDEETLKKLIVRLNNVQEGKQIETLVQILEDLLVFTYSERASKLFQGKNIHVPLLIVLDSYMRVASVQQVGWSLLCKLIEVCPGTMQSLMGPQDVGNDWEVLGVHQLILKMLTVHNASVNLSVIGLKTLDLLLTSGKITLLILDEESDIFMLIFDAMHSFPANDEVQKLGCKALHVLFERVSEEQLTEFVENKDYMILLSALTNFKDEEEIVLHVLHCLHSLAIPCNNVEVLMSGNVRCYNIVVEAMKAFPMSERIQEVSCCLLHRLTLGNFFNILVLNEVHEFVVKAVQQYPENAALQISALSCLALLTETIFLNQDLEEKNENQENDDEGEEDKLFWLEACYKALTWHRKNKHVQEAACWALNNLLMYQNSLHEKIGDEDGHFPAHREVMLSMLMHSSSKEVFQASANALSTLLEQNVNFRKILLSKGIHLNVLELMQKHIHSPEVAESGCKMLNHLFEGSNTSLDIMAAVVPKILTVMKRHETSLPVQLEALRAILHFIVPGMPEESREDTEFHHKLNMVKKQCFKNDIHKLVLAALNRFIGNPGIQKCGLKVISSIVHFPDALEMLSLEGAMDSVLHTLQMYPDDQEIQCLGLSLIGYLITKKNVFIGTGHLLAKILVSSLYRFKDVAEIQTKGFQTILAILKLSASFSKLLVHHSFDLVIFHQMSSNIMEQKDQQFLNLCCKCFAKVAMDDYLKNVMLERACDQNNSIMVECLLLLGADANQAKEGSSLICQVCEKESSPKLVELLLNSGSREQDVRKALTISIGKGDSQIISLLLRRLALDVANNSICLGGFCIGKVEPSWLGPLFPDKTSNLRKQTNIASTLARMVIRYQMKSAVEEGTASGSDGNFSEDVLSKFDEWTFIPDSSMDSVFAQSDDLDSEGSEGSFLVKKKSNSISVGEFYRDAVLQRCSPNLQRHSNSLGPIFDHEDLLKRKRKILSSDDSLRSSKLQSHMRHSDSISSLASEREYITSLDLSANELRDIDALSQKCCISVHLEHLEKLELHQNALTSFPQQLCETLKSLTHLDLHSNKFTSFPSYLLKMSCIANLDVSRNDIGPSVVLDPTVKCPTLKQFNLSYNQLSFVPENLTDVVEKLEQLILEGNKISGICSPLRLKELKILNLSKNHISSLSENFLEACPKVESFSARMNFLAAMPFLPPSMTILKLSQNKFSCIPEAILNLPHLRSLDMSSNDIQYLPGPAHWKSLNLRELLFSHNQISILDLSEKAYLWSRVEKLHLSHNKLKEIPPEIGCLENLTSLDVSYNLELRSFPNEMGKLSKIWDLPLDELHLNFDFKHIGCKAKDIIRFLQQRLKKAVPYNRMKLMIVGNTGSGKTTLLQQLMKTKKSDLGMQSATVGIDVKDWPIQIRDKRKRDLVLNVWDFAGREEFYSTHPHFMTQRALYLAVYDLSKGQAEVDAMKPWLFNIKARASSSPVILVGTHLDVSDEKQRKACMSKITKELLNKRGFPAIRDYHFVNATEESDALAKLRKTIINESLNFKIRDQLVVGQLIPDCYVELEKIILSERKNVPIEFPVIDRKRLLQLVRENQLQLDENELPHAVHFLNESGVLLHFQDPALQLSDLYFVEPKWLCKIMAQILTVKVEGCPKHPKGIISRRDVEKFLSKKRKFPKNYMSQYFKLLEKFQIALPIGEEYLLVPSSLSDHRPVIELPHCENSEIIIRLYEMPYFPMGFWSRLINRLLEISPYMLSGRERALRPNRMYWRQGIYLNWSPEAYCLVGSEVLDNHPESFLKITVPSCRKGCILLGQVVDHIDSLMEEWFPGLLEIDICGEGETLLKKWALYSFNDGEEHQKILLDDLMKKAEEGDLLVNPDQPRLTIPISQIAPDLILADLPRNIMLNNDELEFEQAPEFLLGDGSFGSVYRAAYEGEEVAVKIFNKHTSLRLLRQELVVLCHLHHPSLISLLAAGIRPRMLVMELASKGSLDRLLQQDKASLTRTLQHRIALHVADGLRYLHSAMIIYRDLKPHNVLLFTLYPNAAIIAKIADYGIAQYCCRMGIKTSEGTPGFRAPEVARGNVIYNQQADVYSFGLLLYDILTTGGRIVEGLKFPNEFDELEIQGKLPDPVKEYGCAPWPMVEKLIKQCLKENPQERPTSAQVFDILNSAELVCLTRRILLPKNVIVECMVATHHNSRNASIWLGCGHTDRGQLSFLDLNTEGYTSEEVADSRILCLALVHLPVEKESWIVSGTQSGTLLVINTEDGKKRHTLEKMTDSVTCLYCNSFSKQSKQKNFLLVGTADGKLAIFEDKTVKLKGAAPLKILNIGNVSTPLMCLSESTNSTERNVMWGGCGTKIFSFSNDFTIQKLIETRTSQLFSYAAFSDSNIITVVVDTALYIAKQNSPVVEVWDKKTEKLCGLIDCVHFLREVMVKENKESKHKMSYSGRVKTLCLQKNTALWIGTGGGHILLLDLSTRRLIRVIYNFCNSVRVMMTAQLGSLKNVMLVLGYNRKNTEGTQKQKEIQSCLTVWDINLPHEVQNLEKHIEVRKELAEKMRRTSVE

`CN(C)Cc1cccc(N/C(=C2\C(=O)Nc3cc(C(N)=O)ccc32)c2ccccc2)c1`: the Ratio IC50 in the assay listed under Homo sapiens [1] was found to be 580; in the assay filed under Homo sapiens [2], 60.

For `C=C(CC)C(=O)c1ccc(OCC(=O)O)c(Cl)c1Cl` [ETHACRYNIC ACID], the pIC50 – broadly, −log10 of the IC50, conventionally taken in molar units – in [3] is 5.35. Also, the Ratio IC50 in the assay filed under Homo sapiens [4] is 3; in the assay filed under Homo sapiens [5], 3; in the assay filed under Homo sapiens [6], 12; in the assay filed under Homo sapiens [7], 9.

Regarding `C=CC(=O)Nc1cccc(-c2n[nH]c3cc(C)ccc23)c1`, the inhibition in [8], in [9] and in assay [10] was above 75% throughout.

As for `COc1ccc2c(Cc3ccc(O[Si](C)(C)C(C)(C)C)cc3)c3[n+](cc2c1OC)CCc1ccccc1-3`, the pIC50 in assay [11] was 5.00; in assay [12] it was 5.22.

In turn, `O=C(O)CCSC1=CC(=O)c2ccccc2C1=O` showed a pIC50 in assay [13] of 6.64.

As to `O=C(O)c1cccc(NC2=CC(=O)c3ccccc3C2=O)c1`, the Ratio IC50 is 17 in the assay listed under Homo sapiens [14] and 12 in the assay listed under Homo sapiens [15]. In [13], this molecule had a pIC50 of 5.72.

As for `C=CC(=O)Nc1cccc(-c2n[nH]c3ccccc23)c1`, the inhibition in assay [8], in assay [9], in assay [10] and in assay [16] was above 75% throughout.

These data come from ChEMBL document CHEMBL4725240, “Non-'classical' MEKs: A review of MEK3-7 inhibitors” (Bioorg Med Chem Lett, 2020).
